# Data from ChEMBL document CHEMBL1201862, “PubChem BioAssay data set” (2004).
# Activity calls are given as the source filed them.
# Experiments:
# Estrogen receptor = target: T1, Estrogen receptor (Homo sapiens, UniProt P03372);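 note: potency for inhibiting coactivator peptide recruitment to the receptor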
# T1 sequence (P03372 whole entry): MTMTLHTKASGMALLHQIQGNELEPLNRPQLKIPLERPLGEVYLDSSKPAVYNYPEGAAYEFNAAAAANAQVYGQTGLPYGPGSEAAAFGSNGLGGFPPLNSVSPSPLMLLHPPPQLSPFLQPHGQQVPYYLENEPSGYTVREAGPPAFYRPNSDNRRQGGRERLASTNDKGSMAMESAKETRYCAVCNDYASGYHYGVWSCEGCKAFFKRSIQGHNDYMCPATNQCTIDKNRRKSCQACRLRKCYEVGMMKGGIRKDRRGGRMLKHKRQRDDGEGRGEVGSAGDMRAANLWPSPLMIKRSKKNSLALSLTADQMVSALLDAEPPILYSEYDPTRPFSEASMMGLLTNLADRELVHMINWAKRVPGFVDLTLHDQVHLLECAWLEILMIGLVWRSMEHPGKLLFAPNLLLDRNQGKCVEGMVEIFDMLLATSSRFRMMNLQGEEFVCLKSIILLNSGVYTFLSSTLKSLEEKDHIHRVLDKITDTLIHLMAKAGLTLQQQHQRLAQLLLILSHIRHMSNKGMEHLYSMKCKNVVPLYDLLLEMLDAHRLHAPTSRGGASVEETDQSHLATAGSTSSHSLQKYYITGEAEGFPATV
# [1] = HEK-293T cell viability reduction – luminescence, B-cell screen hits, cytotoxicity control for BCR NF-kB inhibitor project, dose response (AID 489021); type: functional, cell-based;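 note: HEK-293T cells carrying an NF-kB luciferase reporter; cells exposed to compound for about 14 hours before viability readout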
# [2] = target: Voltage-dependent T-type calcium channel subunit alpha-1H (Homo sapiens, UniProt O95180); type: functional;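 note: channel activity triggered by adding a high calcium stimulation buffer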
# Cytochrome P450 2C19 = Cytochrome P450 2C19 (Homo sapiens, UniProt P33261); experiment: Cytochrome panel assay with activity outcomes. Panel member name: p450-cyp2c19 Compounds with AC50 equal or less than 10 uM are considered active; type: functional; conditions: read-out: AC50
# Cytochrome P450 2C9 = Cytochrome P450 2C9 (Homo sapiens, UniProt P11712)
# [3] = target: E3 ubiquitin-protein ligase Mdm2 (Homo sapiens, UniProt Q00987); experiment: MDM2-luc reporter signal enhancers, multi-concentration potency testing, MDM2 ubiquitin-protein ligase inhibitor program, whole-cell format, luminescence detection, 384-well microplate (AID 1394); type: functional;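 note: MDM2 E3 inhibitors raise luminescence so EC50 is for signal enhancement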
# [4] = target: Mitogen-activated protein kinase 10 (Homo sapiens, UniProt P53779); experiment: Dose response biochemical screening assay for inhibitors of c-Jun N-Terminal Kinase 3 (JNK3). [Related pubchem assays: 746 ]
# [5] = reduced cellular PGC1a acetyl-lysine signal – cell-based, cherry-picked samples, dose response (AID 720514); type: functional;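 note: potency may reflect raised or lowered acetylation signal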
# [6] = target: DNA dC->dU-editing enzyme APOBEC-3G (Homo sapiens, UniProt Q9HC16); experiment: Dose Response confirmation of small molecule APOBEC3G DNA Deaminase Inhibitors via a fluorescence-based single-stranded DNA deaminase assay. [Related pubchem assays (depositor defined):AID493012, AID493028]; type: functional
# BJ [7] = experiment: BJ-TERT fibroblast viability loss – cell-based, RAS-independent, luminescence, dose response (AID 1933); type: functional; conditions: Homo sapiens
# BJ [8] = experiment: cells; type: functional, cell-based; conditions: Homo sapiens
# Trypsin = Trypsin (Sus scrofa, UniProt P00761); experiment: trypsin protease activity blockade – biochemical, quenched peptide fluorescence, cherry-pick, selectivity assay for Rce1 protease inhibitor project, dose response (AID 488789)
# CAAX prenyl protease 2 = target: T2, CAAX prenyl protease 2 (Saccharomyces cerevisiae S288c, UniProt Q03530); type: biochemical
# T2 sequence (Q03530 whole entry): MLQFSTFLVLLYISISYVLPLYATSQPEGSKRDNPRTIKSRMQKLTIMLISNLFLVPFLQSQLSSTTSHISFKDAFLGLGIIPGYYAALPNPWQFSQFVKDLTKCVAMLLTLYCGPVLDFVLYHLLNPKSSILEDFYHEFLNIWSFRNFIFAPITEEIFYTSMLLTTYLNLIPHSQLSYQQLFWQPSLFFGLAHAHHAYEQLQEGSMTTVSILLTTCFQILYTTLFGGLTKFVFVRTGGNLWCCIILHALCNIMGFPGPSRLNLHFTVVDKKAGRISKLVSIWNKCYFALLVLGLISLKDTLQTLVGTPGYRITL
# Paired box protein Pax-8 = Paired box protein Pax-8 (Homo sapiens, UniProt Q06710); experiment: PAX8 transcriptional activity inhibition in RMG-I – RMG-I cells, luciferase, cherry-pick, dose response (AID 687027); type: functional, cell-based;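 note: luciferase reporter driven by Pax8 target thyroperoxidase promoter measured by SteadyGlo luminescence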
# [9] = A2780 cell killing – plate reader, dry powder samples, cytotoxicity control, dose response (AID 743046); type: functional, cell-based
# [10] = OVCAR-3 cell viability loss – plate reader, dry powder samples, PAX8 inhibitor project, dose response (AID 743044); type: functional, cell-based
# [11] = OVCAR8 cell viability loss – plate reader, dry powder samples, PAX8 project, dose response (AID 743197); type: functional, cell-based; conditions: OVCAR-8
# [12] = THP-1 cell cytotoxicity, dose response, cytotoxicity control for non-replicating M. tuberculosis project (AID 489025); type: functional
# [13] = growth inhibition of yeast DHODH-expressing 3D7 parasites – SYBR Green, dry powder samples, dose response (AID 1159570); type: functional, cell-based;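 note: parasite growth measured after 72 hours of compound exposure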
# [14] = toxicity to human HepG2 hepatoma cells – cell-based, plate reader, dry powder samples, cytotoxicity control, dose response (AID 1159569); type: functional;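 note: inhibitor potency with signal falling toward the positive control level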
# [15] = P. falciparum Dd2 growth inhibitors, dose response, SYBR Green, cherry-picked samples (AID 1159567); type: functional, cell-based
# [16] = Dd2 malaria parasite growth inhibition potency – SYBR Green, dry powder samples, dose response (AID 1159566); type: functional, cell-based;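 note: potency for growth inhibition with lower SYBR green DNA signal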
# [17] = growth inhibition of PfATP4-mutant resistant parasites – NITD609-resistant line, SYBR Green, dry powder, dose response (AID 1159571); type: functional, cell-based;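 note: parasites synchronized at ring stage by sorbitol before testing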
# Mitogen-activated protein kinase 10, sequence (P53779 whole entry): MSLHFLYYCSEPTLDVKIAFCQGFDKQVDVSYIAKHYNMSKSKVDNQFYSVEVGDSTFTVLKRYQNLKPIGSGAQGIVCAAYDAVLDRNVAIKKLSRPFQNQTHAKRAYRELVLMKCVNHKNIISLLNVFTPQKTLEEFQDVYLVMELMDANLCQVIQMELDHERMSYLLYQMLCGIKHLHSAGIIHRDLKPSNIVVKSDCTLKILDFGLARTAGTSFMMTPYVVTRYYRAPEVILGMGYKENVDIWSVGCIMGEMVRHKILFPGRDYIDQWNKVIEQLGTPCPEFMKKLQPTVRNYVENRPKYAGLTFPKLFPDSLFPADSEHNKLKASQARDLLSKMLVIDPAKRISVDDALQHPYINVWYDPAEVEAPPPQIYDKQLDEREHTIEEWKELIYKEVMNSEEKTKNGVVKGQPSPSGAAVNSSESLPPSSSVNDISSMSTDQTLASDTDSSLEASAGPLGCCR
# Paired box protein Pax-8, sequence (Q06710 whole entry): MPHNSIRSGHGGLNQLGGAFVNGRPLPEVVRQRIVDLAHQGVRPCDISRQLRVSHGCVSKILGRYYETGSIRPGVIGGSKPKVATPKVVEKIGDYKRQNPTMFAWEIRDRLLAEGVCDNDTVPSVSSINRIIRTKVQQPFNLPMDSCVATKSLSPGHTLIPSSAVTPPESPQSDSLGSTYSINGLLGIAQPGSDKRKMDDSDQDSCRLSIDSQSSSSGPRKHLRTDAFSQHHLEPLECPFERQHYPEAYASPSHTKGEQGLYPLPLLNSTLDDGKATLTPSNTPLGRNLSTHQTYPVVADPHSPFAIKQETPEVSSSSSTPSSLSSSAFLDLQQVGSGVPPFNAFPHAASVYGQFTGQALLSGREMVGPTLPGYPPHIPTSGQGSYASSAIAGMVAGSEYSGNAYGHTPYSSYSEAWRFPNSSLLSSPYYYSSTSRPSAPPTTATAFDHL
# E3 ubiquitin-protein ligase Mdm2, sequence (Q00987 whole entry): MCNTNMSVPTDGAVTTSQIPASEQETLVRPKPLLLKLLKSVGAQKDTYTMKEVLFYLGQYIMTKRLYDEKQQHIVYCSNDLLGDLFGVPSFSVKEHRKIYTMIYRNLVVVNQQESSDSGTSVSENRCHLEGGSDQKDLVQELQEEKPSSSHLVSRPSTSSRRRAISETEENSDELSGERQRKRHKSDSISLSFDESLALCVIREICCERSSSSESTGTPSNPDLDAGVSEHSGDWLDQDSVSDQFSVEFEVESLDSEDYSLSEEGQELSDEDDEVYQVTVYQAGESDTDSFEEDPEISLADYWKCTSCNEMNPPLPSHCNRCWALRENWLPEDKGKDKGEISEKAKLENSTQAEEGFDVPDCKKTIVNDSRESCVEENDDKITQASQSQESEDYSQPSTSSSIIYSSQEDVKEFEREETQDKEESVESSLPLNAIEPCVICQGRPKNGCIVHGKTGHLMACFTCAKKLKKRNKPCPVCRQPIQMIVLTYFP
# Cytochrome P450 2C19, sequence (P33261 whole entry): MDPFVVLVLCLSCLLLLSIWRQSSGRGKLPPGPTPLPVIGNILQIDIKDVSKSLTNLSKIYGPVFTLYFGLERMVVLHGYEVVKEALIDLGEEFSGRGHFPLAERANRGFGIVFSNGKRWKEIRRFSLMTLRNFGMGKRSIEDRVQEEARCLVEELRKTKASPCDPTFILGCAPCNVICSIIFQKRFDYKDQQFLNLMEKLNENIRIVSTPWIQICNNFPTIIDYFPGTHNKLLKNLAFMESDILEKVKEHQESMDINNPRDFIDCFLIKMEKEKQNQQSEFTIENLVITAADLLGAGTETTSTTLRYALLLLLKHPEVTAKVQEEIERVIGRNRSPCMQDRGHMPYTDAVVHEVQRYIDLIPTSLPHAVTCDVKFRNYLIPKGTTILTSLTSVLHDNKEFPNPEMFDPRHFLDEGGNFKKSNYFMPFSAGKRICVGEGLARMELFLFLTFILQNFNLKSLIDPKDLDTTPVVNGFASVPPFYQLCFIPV
# DNA dC->dU-editing enzyme APOBEC-3G, sequence (Q9HC16 whole entry): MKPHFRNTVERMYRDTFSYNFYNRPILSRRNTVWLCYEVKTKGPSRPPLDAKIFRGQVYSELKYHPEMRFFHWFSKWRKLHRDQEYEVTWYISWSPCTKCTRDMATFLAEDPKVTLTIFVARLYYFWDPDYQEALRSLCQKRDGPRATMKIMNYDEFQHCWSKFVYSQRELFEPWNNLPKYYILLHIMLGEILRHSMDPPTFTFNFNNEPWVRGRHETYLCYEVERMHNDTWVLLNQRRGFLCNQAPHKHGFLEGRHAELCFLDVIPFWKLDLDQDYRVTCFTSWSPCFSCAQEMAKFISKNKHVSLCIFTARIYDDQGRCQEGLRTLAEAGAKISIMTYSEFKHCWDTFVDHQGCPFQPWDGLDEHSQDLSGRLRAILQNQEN
# Voltage-dependent T-type calcium channel subunit alpha-1H, sequence (O95180 whole entry): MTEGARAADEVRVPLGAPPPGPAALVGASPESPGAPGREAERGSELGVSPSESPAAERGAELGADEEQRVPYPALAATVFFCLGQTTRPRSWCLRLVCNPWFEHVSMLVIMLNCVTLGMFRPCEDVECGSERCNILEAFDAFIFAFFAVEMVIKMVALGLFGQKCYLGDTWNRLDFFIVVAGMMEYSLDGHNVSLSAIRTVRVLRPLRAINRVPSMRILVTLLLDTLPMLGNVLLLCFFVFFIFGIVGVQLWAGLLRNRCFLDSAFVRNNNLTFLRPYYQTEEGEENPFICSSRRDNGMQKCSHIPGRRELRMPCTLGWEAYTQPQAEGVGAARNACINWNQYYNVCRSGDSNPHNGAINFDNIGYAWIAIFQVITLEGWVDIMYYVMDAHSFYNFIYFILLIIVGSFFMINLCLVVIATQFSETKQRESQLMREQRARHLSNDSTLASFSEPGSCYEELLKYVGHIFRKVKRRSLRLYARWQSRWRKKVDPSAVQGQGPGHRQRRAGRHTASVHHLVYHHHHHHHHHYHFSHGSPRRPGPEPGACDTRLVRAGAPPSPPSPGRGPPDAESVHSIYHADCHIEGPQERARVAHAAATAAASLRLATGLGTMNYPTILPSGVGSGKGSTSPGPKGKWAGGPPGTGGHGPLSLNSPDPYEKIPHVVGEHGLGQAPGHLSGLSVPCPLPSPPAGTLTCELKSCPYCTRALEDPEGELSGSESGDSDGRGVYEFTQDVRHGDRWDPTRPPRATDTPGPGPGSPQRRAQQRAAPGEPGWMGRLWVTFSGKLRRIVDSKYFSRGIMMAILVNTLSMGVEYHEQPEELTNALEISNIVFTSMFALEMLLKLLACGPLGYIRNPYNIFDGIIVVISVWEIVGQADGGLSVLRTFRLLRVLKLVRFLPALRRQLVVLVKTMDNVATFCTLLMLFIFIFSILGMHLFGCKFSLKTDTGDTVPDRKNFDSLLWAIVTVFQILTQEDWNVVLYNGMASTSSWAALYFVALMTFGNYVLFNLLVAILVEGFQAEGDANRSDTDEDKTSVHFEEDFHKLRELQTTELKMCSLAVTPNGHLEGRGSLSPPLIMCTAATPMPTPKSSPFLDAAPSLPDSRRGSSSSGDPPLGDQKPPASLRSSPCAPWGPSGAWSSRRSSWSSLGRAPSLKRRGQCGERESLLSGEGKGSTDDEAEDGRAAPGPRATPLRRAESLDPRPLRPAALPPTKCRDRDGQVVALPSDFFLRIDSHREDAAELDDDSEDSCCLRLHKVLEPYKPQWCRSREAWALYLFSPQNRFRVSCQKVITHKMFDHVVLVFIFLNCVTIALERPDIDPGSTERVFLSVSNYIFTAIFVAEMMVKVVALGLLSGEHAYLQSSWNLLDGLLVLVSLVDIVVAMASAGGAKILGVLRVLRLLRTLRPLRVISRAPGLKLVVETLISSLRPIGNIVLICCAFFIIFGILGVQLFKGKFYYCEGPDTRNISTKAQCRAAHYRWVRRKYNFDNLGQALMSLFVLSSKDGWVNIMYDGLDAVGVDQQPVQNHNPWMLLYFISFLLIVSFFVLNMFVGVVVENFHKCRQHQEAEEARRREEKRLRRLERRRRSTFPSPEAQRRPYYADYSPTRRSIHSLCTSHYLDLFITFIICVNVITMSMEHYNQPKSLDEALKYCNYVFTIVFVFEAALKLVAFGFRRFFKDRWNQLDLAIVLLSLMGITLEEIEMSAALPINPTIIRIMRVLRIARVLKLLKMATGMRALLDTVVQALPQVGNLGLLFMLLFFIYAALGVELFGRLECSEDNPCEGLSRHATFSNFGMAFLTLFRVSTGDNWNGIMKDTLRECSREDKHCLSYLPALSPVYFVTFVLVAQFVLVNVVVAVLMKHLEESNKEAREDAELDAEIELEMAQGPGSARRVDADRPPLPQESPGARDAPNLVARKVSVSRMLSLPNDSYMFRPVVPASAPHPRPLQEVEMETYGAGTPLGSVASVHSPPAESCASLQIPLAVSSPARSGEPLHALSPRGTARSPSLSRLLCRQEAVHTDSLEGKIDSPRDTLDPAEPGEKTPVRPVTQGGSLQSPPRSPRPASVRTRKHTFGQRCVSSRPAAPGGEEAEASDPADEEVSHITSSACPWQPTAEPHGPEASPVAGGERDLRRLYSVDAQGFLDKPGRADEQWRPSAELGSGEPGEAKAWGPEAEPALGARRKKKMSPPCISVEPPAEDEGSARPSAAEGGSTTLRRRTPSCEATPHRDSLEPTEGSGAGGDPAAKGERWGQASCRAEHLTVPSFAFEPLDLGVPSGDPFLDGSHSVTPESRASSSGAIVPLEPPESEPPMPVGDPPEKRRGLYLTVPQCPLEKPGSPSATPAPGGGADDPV
# Trypsin, sequence (P00761 whole entry): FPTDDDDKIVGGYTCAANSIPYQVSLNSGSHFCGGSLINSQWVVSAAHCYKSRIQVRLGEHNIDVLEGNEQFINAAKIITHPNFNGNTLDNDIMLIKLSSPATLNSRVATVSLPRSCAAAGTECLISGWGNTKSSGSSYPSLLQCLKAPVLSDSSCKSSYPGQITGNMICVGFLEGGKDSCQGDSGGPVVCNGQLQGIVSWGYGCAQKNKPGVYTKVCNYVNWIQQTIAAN
structure (smiles),measurement,setting,value
COC(=O)c1ccc2c(=O)n(CCCCCC(=O)NCc3ccc4c(c3)OCO4)c(=O)[nH]c2c1,IC50,Estrogen receptor,14.8 µM (active)
Cc1c(CCO)c(O)oc2nnc(-c3ccccc3)c1-2,IC50,[1],> 80 µM (inactive)
Cn1c(=O)cc(OCC(=O)N2CCC3(CC2)OCCO3)c2ccccc21,IC50,[1],> 80 µM (inactive)
CC(NC(=O)CCSc1nc(-c2ccc3c(c2)OCO3)cc(C(F)(F)F)n1)c1ccccc1 (stereo unspecified),IC50,Estrogen receptor,> 50 µM (not active)
same,EC50,[2],7.03 µM (active)
same,AC50,Cytochrome P450 2C19,0.398 µM (inconclusive)
Brc1ccc2cccnc2c1,AC50,Cytochrome P450 2C19,0.316 µM (inconclusive)
same,AC50,Cytochrome P450 2C9,inconclusive
Cn1c(=O)n(C)c2cc(NC(=O)CSc3nnc(-c4ccccc4O)n3-c3ccccc3)ccc21,IC50,[1],> 80 µM (inactive)
Cc1ccc(C(=O)NN2C(=O)/C(=C/c3cccn3C)SC2=S)cc1,EC50,[3],0.09 µM (not active)
CCOc1ccc(C2CC(=O)NC3=C2C(=O)CCC3)cc1 (stereo unspecified),IC50,[4],> 93.1 µM (not active)
C=CCNc1nc(-c2cccc(OC)c2O)nc2ccccc12,IC50,Estrogen receptor,> 50 µM (not active)
O=C(c1ccc(F)cc1)N(C(=O)c1ccc(F)cc1)c1ncccn1,AC50,[5],25.9 µM (active)
CC(C)=C1SC(N2CCN(c3cccc(C(F)(F)F)c3)CC2)=NC1=O,EC50,[3],18.7 µM (not active)
CCOc1ccc(C(S)=NC2CCCCC2)cc1OC,IC50,[6],64.7 µM (active)
Cc1ccc(Nc2nc(N)nc(-c3oc4ccccc4c3C)n2)cc1,EC50,BJ [7],< 0.12 µM (active)
same,EC50,BJ [8],0.228 µM (active)
CCCN1Cc2cccc(C(=O)NCc3ccc4c(c3)OCO4)c2C1=O,IC50,[4],31.8 µM (not active)
Cc1cc(OCC(=O)N2CCC(C(=O)O)CC2)c2c(C)cc(=O)oc2c1,AC50,Trypsin,21.7 µM (active)
same,AC50,CAAX prenyl protease 2,15.6 µM (active)
CC1(c2nnc(-c3cccc(Cl)c3)o2)CC(c2cccc(Cl)c2)=NO1 (stereo unspecified),IC50,[1],> 80 µM (inactive)
COc1ccc(S(=O)(=O)Nc2ccc3c(c2)C(=O)N([C@@H](C)CO)C[C@H](C)[C@@H](CN(C)Cc2ccc(C(F)(F)F)cc2)OCCCC[C@@H](C)O3)cc1,AC50,Paired box protein Pax-8,9.62 µM (active)
same,AC50,[9],56.2 µM (active)
same,AC50,[10],23 µM (active)
same,AC50,[11],23.6 µM (active)
C[C@H]1CCCCO[C@@H](CN(C)Cc2ccc(Cl)c(Cl)c2)[C@@H](C)CN([C@@H](C)CO)C(=O)c2cc(NC(=O)Nc3ccc(C(F)(F)F)cc3)ccc2O1,AC50,Paired box protein Pax-8,4.77 µM (active)
same,AC50,[9],59.1 µM (active)
same,AC50,[10],22.2 µM (active)
same,AC50,[11],> 70 µM (inactive)
C/C(=N\CCCn1ccnc1)C1=C(O)c2ccccc2C1=O,IC50,[4],35.7 µM (not active)
Cn1cccc1/C=N\NC(=O)C1COc2ccccc2O1 (stereo unspecified),CC50,[12],> 40 µM (active)
COc1ccc2c3c(n(C)c2c1)[C@H](CO)N(C(=O)Nc1ccc(F)cc1)CC31CCN(Cc2cccnc2)CC1,AC50,[13],1.52 µM (active)
same,AC50,[14],> 100 µM (inactive)
same,AC50,[15],3.02 µM (active)
same,AC50,[16],1.61 µM (active)
same,AC50,[17],2.03 µM (active)
CN(C)C(=O)c1ccc(-c2ccc([C@@H]3[C@@H]4CN(Cc5ccc6c(c5)OCO6)C[C@H]3N4)cc2)cc1,AC50,[13],4.61 µM (active)
same,AC50,[14],22.6 µM (active)
same,AC50,[15],1.13 µM (active)
same,AC50,[16],2.25 µM (active)
same,AC50,[17],2.58 µM (active)
